Values of other authors as cited in publication PMC8287028 (Frontiers in Veterinary Science, 2021).

System: Factor Xa
Set-up: method as in PMID 35442563
Settings: 19 sick dogs, post-treatment monitoring; cited from earlier work

With `O=C(NC[C@H]1CN(c2ccc(N3CCOCC3=O)cc2)C(=O)O1)c1ccc(Cl)s1` [rivaroxaban] as the molecule, how does the “dogs with aXa activities below the range associated with positive clinical outcomes in humans” value read?
Its value is 8/19.

What about the “dogs with aXa activities exceeding the range associated with positive clinical outcomes in humans” value of the same molecule?
Its value is 8/19.
